From patent US20260234164A1, “BIPHENYL COMPOUND AS IMMUNOMODULATOR, PREPARATION METHOD THEREFOR AND USE THEREOF” (SHENZHEN CHIPSCREEN BIOSCIENCES CO., LTD., priority 2021, published 2026)

tested on: PD-1/PD-L1-mediated T cell activation inhibitory signal; assay: CHO-PD-L1-CD3L / Jurkat-PD-1-NFAT co-culture luciferase reporter assay; format: cell-based; conditions: Homo sapiens, co-culture 6 h, read-out: EC50 blocking PD-1/PD-L1-mediated T cell activation inhibitory signal
Procedure: In order to detect the effect of the interaction between PD-1 and PD-L1 on T cell activation signals in the immune response, CHO-PD-L1-CD3L cells stably expressing human PD-L1 molecules and anti-CD3 single-chain antibody (ScFv) and Jurkat-PD-1-NFAT cells stably expressing human PD-1 molecule and NFAT reporter gene were constructed. When the two kinds of cells were co-incubated, the binding of anti-CD3ScFv on the surface of CHO cells and the membrane CD3 molecules of Jurkat cells would transmit an activation signal to Jurkat cells, but simultaneously, the binding of PD-L1 on the surface of CHO cells and PD-1 molecules on the surface of Jurkat cells would transmit an inhibitory signal inward to prevent expression of the luciferase reporter gene. When immune checkpoint antibodies or small molecule inhibitors were added, the binding of PD-1 and PD-L1 was blocked, the NFAT pathway activated by T cell activation signal mediated by cross-linking of CD3ScFv antibody and CD3 was no longer affected by the inhibitory signal, and the downstream luciferase reporter gene started to be expressed. A chemiluminescent signal proportional to reporter gene activation was detected by adding a catalytic substrate.
CHO-PD-L1-CD3L cells expressing human PD-L1 molecule and anti-CD3 single-chain antibody (ScFv) and Jurkat-PD-1-NFAT cells stably expressing human PD-1 molecule and NFAT reporter gene were independently constructed and provided by Dr. Chen Bo (KeyMed Bioscience (Chengdu) Co., Ltd.). Puromycin (Cat #540411) and Hygromycin B (Cat #V900372) for stable culture of transfected cells were purchased from Sigma, PMA (Cat #P1585) was purchased from Sigma, anti-human PD-L1 antibody (Cat #GMP-A066) was purchased from Novoprotein Company. Luciferase substrate solution (Cat #E6485) and luciferase-specific cell lysis solution 5× (Cat #E1531) were purchased from Promega. Fluorescence detection instrument Tecan (Spark 10M) was purchased from Switzerland Tecan Company.
(1) The day before the experiment, 100 μL of CHO-PD-L1-CD3L cells were inoculated in each well of a 96-well cell culture plate (about 4×10^4 cells/well) with a medium of DMEM/F12 containing 10% FBS, 8 μg/mL puromycin and 200 μg/mL hygromycin B, and cultured overnight at 37° C.
(2) The test compounds were diluted with 0.1% PBST into different concentration gradients, added into 96-well plates, and pre-incubated for 30 min. Jurkat-PD-1-NFAT cell count was adjusted to 2×10^5 cells/mL with the RPMI 1640 complete medium containing 10% FBS, […]8 μg/mL puromycin and 200 μg/mL hygromycin B. 100 ng/mL PMA (the stock solution was prepared with DMSO to a concentration of 10 mg/mL) was added to amplify T cell activation signal. 100 μL of the above Jurkat-PD-1-NFAT cells was added to each well of the 96-well plate for co-culture.
(3) When detecting the reaction, a control group was provided, including a solvent control without adding test compounds and a positive control with addition of anti-human PD-1 antibody as the experimental system. All detections were performed with duplicates.
(4) After continuous incubation at 37° C. for 6 h, 40 μL of 5× cell lysate was directly added, and mixed well. The plate was placed at room temperature for 10 min to completely lyse the cells. 50 μL of the lysed cell solution was transferred to a fluorescence detection plate, and added with 30 μL of luciferase substrate solution. The chemiluminescence detection program on the fluorescence detector was immediately selected for detection.
(5) The inhibition rate of T cell activation signal at the cellular level of the test compounds was calculated as follows: Inhibition rate of T cell activation signal (%)=(the original value of chemiluminescence in the detection well−solvent control)/(the highest original value of chemiluminescence detected in the compound detection well−solvent control)×100%. […]

Structure (SMILES) | EC50
[2H]C([2H])([2H])n1c(C(=O)Nc2cccc(-c3cccc(NC(=O)c4nc5c(n4C([2H])([2H])[2H])CCN(CCC46CCC(C(=O)O)(CC4)C6)C5)c3Cl)c2F)nc2c1CCN(CCC13CCC(COC)(CC1)C3)C2 (single isomer, unassigned) [Compound I-8, 4-(2-(2-((2-chloro-2′-fluoro-3′-(5-(2-(4-(methoxymethyl)bicyclo[2.2.1]heptane-1-yl)ethyl)-1-(methyl-d3)-4,5,6,7-tetrahydro-1H-imidazo[4,5-c]pyridine-2-carboxamido)-[1,1′-biphenyl]-3-yl)carbamoyl)-1-(methyl-d3)-1,4,6,7-tetrahydro-5H-imidazo[4,5-c]pyridin-5-yl)ethyl)bicyclo[2.2.1]heptane-1-carboxylic acid] | 45.1 nM
[2H]C([2H])([2H])OCC12CCC(CCN3CCc4c(nc(C(=O)Nc5cccc(-c6cccc(NC(=O)c7nc8c(n7C([2H])([2H])[2H])CCN(CCC79CCC(C(=O)O)(CC7)C9)C8)c6Cl)c5F)n4C([2H])([2H])[2H])C3)(CC1)C2 (single isomer, unassigned) [Compound I-7, 4-(2-(2-((2-chloro-2′-fluoro-3′-(5-(2-(4-((methoxy-d3)methyl)bicyclo[2.2.1]heptane-1-yl)ethyl)-1-(methyl-d3)-4,5,6,7-tetrahydro-1H-imidazo[4,5-c]pyridine-2-carboxamido)-[1,1′-biphenyl]-3-yl)carbamoyl)-1-(methyl-d3)-1,4,6,7-tetrahydro-5H-imidazo[4,5-c]pyridin-5-yl)ethyl)bicyclo[2.2.1]heptane-1-carboxylic acid] | 19.6 nM
[2H]C([2H])([2H])OCC12CCC(CCN3CCc4c(nc(C(=O)Nc5cccc(-c6cccc(NC(=O)c7nc8c(n7C([2H])([2H])[2H])CCN(CCC79CCC(C(=O)O)(CC7)C9)C8)c6Cl)c5C)n4C([2H])([2H])[2H])C3)(CC1)C2 [Compound I-9, 4-(2-(2-((2-chloro-3′-(5-(2-(4-((methoxy-d3)methyl)bicyclo[2.2.1]heptane-1-yl)ethyl)-1-(methyl-d3)-4,5,6,7-tetrahydro-1H-imidazo[4,5-c]pyridine-2-carboxamido)-2′-methyl-[1,1′-biphenyl]-3-yl)carbamoyl)-1-(methyl-d3)-1,4,6,7-tetrahydro-5H-imidazo[4,5-c]pyridin-5-yl)ethyl)bicyclo[2.2.1]heptane-1-carboxylic acid] | 28.1 nM
[2H]C([2H])([2H])n1c(C(=O)Nc2cccc(-c3cccc(NC(=O)c4nc5c(n4C([2H])([2H])[2H])CCN(CCC46CCC(COC)(CC4)C6)C5)c3Cl)c2C)nc2c1CCN(CCC13CCC(C(=O)O)(CC1)C3)C2 [Compound I-12, 4-(2-(2-((2′-chloro-3′-(5-(2-(4-(methoxymethyl)bicyclo[2.2.1]heptane-1-yl)ethyl)-1-(methyl-d3)-4,5,6,7-tetrahydro-1H-imidazo[4,5-c]pyridine-2-carboxamido)-2-methyl-[1,1′-biphenyl]-3-yl)carbamoyl)-1-(methyl-d3)-1,4,6,7-tetrahydro-5H-imidazo[4,5-c]pyridin-5-yl)ethyl)bicyclo [2.2.1]heptane-1-carboxylic acid] | 47.9 nM
[2H]C([2H])([2H])n1c(C(=O)Nc2cccc(-c3cccc(NC(=O)c4nc5c(n4C([2H])([2H])[2H])CCN(CCC46CCC(C(=O)O)(CC4)C6)C5)c3Cl)c2C)nc2c1CCN(CCC13CCC(COC)(CC1)C3)C2 [Compound I-10, 4-(2-(2-((2-chloro-3′-(5-(2-(4-(methoxymethyl)bicyclo[2.2.1]heptane-1-yl)ethyl)-1-(methyl-d3)-4,5,6,7-tetrahydro-1H-imidazo[4,5-c]pyridine-2-carboxamido)-2′-methyl-[1,1′-biphenyl]-3-yl)carbamoyl)-1-(methyl-d3)-1,4,6,7-tetrahydro-5H-imidazo[4,5-c]pyridin-5-yl)ethyl)bicyclo[2.2.1]heptane-1-carboxylic acid] | 29.9 nM
[2H]C([2H])([2H])OCC12CCC(CCN3CCc4c(nc(C(=O)Nc5cccc(-c6cccc(NC(=O)c7nc8c(n7C([2H])([2H])[2H])CCN(CCC79CCC(C(=O)O)(CC7)C9)C8)c6C)c5Cl)n4C([2H])([2H])[2H])C3)(CC1)C2 [Compound I-11, 4-(2-(2-((2′-chloro-3′-(5-(2-(4-((methoxy-d3)methyl)bicyclo[2.2.1]heptane-1-yl)ethyl)-1-(methyl-d3)-4,5,6,7-tetrahydro-1H-imidazo[4,5-c]pyridine-2-carboxamido)-2-methyl-[1,1′-biphenyl]-3-yl)carbamoyl)-1-(methyl-d3)-1,4,6,7-tetrahydro-5H-imidazo[4,5-c]pyridin-5-yl)ethyl)bicyclo[2.2.1]heptane-1-carboxylic acid] | 58.4 nM

These reach a lower EC50. Values come first.

EC50 | Structure (SMILES)
12.5 nM | [2H]C([2H])([2H])n1c(C(=O)Nc2cccc(-c3cccc(NC(=O)c4nc5c(n4C([2H])([2H])[2H])CCN(CCC46CCC(C(=O)O)(CC4)C6)C5)c3Cl)c2Cl)nc2c1CCN(CCC13CCC(COC)(CC1)C3)C2 [Compound I-6, 4-(2-(2-((2,2′-dichloro-3′-(5-(2-(4-((methoxy)methyl)bicyclo[2.2.1]heptane-1-yl)ethyl)-1-(methyl-d3)-4,5,6,7-tetrahydro-1H-imidazo[4,5-c]pyridine-2-carboxamido)-[1,1′-biphenyl]-3-yl)carbamoyl)-1-(methyl-d3)-1,4,6,7-tetrahydro-5H-imidazo[4,5-c]pyridin-5-yl)ethyl)bicyclo[2.2.1]heptane-1-carboxylic acid]
13.8 nM | [2H]C([2H])([2H])OCC12CCC(CCN3CCc4c(nc(C(=O)Nc5cccc(-c6cccc(NC(=O)c7nc8c(n7C)CCN(CCC79CCC(C(=O)O)(CC7)C9)C8)c6Cl)c5Cl)n4C)C3)(CC1)C2 [Compound I-1, 4-(2-(2-((2,2′-dichloro-3′-(5-(2-(4-((methoxy-d3)methyl)bicyclo[2.2.1]heptane-1-yl)ethyl)-1-methyl-4,5,6,7-tetrahydro-1H-imidazo[4,5-c]pyridine-2-carboxamido)-[1,1′-biphenyl]-3-yl)carbamoyl)-1-methyl-1,4,6,7-tetrahydro-5H-imidazo[4,5-c]pyridin-5-yl)ethyl)bicyclo[2.2.1]heptane-1-carboxylic acid]
12.5 nM | [2H]C([2H])([2H])OCC12CCC(CCN3CCc4c(nc(C(=O)Nc5cccc(-c6cccc(NC(=O)c7nc8c(n7C([2H])([2H])[2H])CCN(CCC79CCC(C(=O)O)(CC7)C9)C8)c6Cl)c5Cl)n4C([2H])([2H])[2H])C3)(CC1)C2 [Compound I-5, 4-(2-(2-((2,2′-dichloro-3′-(5-(2-(4-((methoxy-d3)methyl)bicyclo[2.2.1]heptane-1-yl)ethyl)-1-(methyl-d3)-4,5,6,7-tetrahydro-1H-imidazo[4,5-c]pyridine-2-carboxamido)-[1,1′-biphenyl]-3-yl)carbamoyl)-1-(methyl-d3)-1,4,6,7-tetrahydro-5H-imidazo[4,5-c]pyridin-5-yl)ethyl)bicyclo[2.2.1]heptane-1-carboxylic acid]
10.6 nM | [2H]C([2H])([2H])OCC12CCC(CCN3CCc4c(nc(C(=O)Nc5cccc(-c6cccc(NC(=O)c7nc8c(n7C)CCN(CCC79CCC(C(=O)O)(CC7)C9)C8)c6C)c5Cl)n4C)C3)(CC1)C2 [Compound I-3, 4-(2-(2-((2′-chloro-3′-(5-(2-(4-((methoxy-d3)methyl)bicyclo[2.2.1]heptane-1-yl)ethyl)-1-methyl-4,5,6,7-tetrahydro-1H-imidazo[4,5-c]pyridine-2-carboxamido)-2-methyl-[1,1′-biphenyl]-3-yl)carbamoyl)-1-methyl-1,4,6,7-tetrahydro-5H-imidazo[4,5-c]pyridin-5-yl)ethyl)bicyclo[2.2.1]heptane-1-carboxylic acid]
